Source: patent US9193722B2, “Tri-cyclic pyrazolopyridine kinase inhibitors” (Vertex Pharmaceuticals Incorporated, priority 2008, dated 2015)

Key:
Type in all cases: biochemical
PKC theta kinase = PKC theta kinase (Homo sapiens, UniProt Q04759); assay: PKC theta kinase inhibition, coupled-enzyme (NADH absorbance) assay, Ki; conditions: 240 μM ATP, 18 nM PKC theta kinase, 30° C.
Summary of the method: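 Coupled-enzyme kinase assay following NADH absorbance at 340 nm, in 100 mM HEPES pH 7.5, 10 mM MgCl2, 25 mM NaCl, 0.1 mM EDTA, 0.01% Brij. Compound in DMSO preincubated with enzyme 10 min at 30 °C. Ki from initial rates by non-linear regression.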

PKC delta kinase = PKC delta kinase (Homo sapiens, UniProt Q05655); assay: PKC delta kinase inhibition, coupled-enzyme (NADH absorbance) assay, Ki; conditions: 150 μM ATP, 46 nM PKC delta kinase, 30° C.; read-out: Ki PKC delta
Summary of the method: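 PKC delta in 100 mM HEPES pH 7.5, 10 mM MgCl2, 25 mM NaCl, 0.1 mM EDTA, 0.01% Brij, equilibrated 10 min at 30° C with compound from DMSO stock. Started with ATP at 150 μM final; NADH-coupled absorbance at 340 nm followed 15 min at 30° C. Ki from initial rates by non-linear regression.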

PKC alpha kinase = PKC alpha kinase (Homo sapiens, UniProt P17252); assay: PKC alpha kinase inhibition, coupled-enzyme (NADH absorbance) assay, Ki; conditions: 130 μM ATP, 4.5 nM PKC alpha kinase, 30° C.
Summary of the method: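 Enzyme in 100 mM HEPES pH 7.5, 10 mM MgCl2, 100 μM CaCl2, 0.01% Brij, preincubated with compound 10 min at 30 °C. Reaction started with 130 μM ATP (final); NADH consumption followed at 340 nm for 15 min at 30 °C. Ki fitted by non-linear regression of initial rates.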

PKC delta kinase, sequence (Q05655 whole entry): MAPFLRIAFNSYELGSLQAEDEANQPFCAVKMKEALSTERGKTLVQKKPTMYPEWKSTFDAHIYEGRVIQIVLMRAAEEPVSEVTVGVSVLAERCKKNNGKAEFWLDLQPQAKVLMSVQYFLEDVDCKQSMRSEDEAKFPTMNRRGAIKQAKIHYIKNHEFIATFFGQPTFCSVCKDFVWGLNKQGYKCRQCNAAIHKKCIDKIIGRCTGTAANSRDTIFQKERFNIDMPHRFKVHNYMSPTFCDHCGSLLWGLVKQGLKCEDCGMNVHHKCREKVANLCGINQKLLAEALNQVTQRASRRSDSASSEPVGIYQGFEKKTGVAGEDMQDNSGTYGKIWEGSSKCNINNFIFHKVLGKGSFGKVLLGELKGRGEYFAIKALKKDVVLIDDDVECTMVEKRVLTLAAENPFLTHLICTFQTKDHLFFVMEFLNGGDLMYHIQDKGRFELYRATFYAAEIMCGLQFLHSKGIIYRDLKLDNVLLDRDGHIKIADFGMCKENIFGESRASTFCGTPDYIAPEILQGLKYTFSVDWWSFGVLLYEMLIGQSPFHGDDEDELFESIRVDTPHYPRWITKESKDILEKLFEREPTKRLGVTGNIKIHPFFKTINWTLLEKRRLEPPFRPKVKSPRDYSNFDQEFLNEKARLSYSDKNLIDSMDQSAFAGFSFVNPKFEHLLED
PKC theta kinase, sequence (Q04759 whole entry): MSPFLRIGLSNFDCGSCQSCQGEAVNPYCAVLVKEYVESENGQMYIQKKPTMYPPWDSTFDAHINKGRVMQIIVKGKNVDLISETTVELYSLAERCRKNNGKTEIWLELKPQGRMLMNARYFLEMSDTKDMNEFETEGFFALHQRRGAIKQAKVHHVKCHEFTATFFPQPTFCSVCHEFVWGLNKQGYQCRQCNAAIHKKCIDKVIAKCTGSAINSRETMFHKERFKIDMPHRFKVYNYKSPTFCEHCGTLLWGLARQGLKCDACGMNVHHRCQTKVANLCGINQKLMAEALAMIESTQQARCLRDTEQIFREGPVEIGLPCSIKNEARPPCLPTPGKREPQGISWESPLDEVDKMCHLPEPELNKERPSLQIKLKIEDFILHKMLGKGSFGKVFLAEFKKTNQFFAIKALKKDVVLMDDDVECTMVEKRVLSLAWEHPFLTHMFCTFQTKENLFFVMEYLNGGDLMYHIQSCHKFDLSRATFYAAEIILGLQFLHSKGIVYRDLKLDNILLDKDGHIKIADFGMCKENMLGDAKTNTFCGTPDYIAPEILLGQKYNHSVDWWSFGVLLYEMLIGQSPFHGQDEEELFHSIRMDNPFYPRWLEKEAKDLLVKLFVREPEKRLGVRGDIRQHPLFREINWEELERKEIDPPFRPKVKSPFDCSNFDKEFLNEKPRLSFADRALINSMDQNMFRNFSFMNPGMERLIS

| SMILES | Ki (PKC theta kinase) [nM] | Ki (PKC delta kinase) [nM] | Ki (PKC alpha kinase) [nM] |
| --- | --- | --- | --- |
| CC(C)C[C@H]1CN(c2ccc(-c3ccccc3)c(-c3n[nH]c4ncccc34)n2)CCN1 [Compound 49] | < 500 | < 2800 | > 1250 |
| CNC(=O)CC1CN(c2ccc(C(F)(F)F)c(-c3n[nH]c4ncccc34)n2)CCN1 (stereo not drawn) [Compound 210] | < 500 | > 1250 | > 1250 |
| CC(F)(F)CC1CN(c2ccc(C(F)(F)F)c(-c3n[nH]c4ncccc34)n2)CCN1 (stereo not drawn) [Compound 119] | < 500 | > 1250 | > 1250 |
| CCC[C@H]1CN(c2cccc(-c3n[nH]c4ncccc34)n2)C[C@H](CC(C)C)N1 [Compound 14] | < 500 | < 2800 | > 1250 |
| CC[C@H]1CN(c2cccc(-c3n[nH]c4ncccc34)n2)C[C@H](CC(C)C)N1 [Compound 12] | < 500 | > 2000 | > 1250 |
| CC(C)C(N)C1CN(c2ccc(C(F)(F)F)c(-c3n[nH]c4ncccc34)n2)CCO1 (stereo not drawn) [Compound 348] | < 500 | > 1250 | > 1250 |
| CC(C)C[C@H]1CN(c2ccc(F)c(-c3n[nH]c4ncccc34)n2)CC[C@@H]1O [Compound 325] | < 500 | > 1250 | > 1250 |
| OC1(C2CN(c3cccc(-c4n[nH]c5ncccc45)n3)CCN2)CC1 (stereo not drawn) [Compound 186] | < 50 | < 50 | < 2800 |
| OCC1CCCN(c2ccc(C(F)(F)F)c(-c3n[nH]c4ncccc34)n2)C1 (stereo not drawn) [Compound 258] | > 700 | > 1250 | > 1250 |
| CC(C)C[C@H]1CN(c2ccc(C(F)(F)F)c(-c3n[nH]c4ncc(Br)cc34)n2)CCN1 [Compound 29] | < 500 | > 2000 | < 2800 |
| CNC(=O)C1CN(c2ccc(C(F)(F)F)c(-c3n[nH]c4ncccc34)n2)CCN1 (stereo not drawn) [Compound 214] | > 700 | > 1250 | > 1250 |
| OC1(C2CN(c3ccc(F)c(-c4n[nH]c5ncccc45)n3)CCN2)CCC1 (stereo not drawn) [Compound 240] | < 50 | < 500 | > 1250 |
| COC(C)C1CN(c2ccc(C(F)(F)F)c(-c3n[nH]c4ncccc34)n2)CCN1 (stereo not drawn) [Compound 221] | < 500 | > 1250 | > 1250 |
| CC(C)C[C@H]1CN(c2cccc(-c3n[nH]c4ncccc34)n2)C[C@H](C)N1 [Compound 10] | < 2800 | > 2000 | > 1250 |
| CN(C)C(=O)C1CN(c2ccc(C(F)(F)F)c(-c3n[nH]c4ncccc34)n2)CCN1 (stereo not drawn) [Compound 215] | > 700 | > 1250 | > 1250 |
| NC1CCCN(c2cccc(-c3n[nH]c4ncccc34)n2)C1 (stereo not drawn) [Compound 68] | < 500 | < 500 | < 2800 |
| CN(C)CC1CCCN(c2ccc(F)c(-c3n[nH]c4ncccc34)n2)C1 (stereo not drawn) [Compound 305] | > 700 | > 1250 | > 1250 |
| CC(C)C(C)(N)C1CCCN(c2ccc(F)c(-c3n[nH]c4ncccc34)n2)C1 (stereo not drawn) [Compound 292] | < 500 | < 2800 | > 1250 |
| OC1CCCN(c2ccc(C(F)(F)F)c(-c3n[nH]c4ncccc34)n2)C1 (stereo not drawn) [Compound 423] | > 700 | > 1250 | > 1250 |
| CC(C)C[C@H]1CN(c2ccc(Cl)c(-c3n[nH]c4ncccc34)n2)CC[C@H]1N [Compound 149] | < 50 | < 500 | < 500 |
| NCC1CCN(c2cc(CO)cc(-c3n[nH]c4ncccc34)n2)CC1 [Compound 453] | < 50 | < 500 | > 1250 |
| CNC(C1CCCN(c2ccc(F)c(-c3n[nH]c4ncccc34)n2)C1)C(C)(C)C (stereo not drawn) [Compound 408] | < 500 | > 1250 | > 1250 |
| CC(C)(F)C(C)(O)C1CN(c2ccc(F)c(-c3n[nH]c4ncccc34)n2)CCN1 (stereo not drawn) [Compound 248] | < 1 | < 500 | < 2800 |
